{"source": "ChEMBL document CHEMBL4371002", "about": "(J Med Chem, 2018)", "key": {"[1]": {"biological_target": "T1, 5-hydroxytryptamine receptor 1A (Homo sapiens, UniProt P08908)", "T1 sequence (P08908 whole entry)": "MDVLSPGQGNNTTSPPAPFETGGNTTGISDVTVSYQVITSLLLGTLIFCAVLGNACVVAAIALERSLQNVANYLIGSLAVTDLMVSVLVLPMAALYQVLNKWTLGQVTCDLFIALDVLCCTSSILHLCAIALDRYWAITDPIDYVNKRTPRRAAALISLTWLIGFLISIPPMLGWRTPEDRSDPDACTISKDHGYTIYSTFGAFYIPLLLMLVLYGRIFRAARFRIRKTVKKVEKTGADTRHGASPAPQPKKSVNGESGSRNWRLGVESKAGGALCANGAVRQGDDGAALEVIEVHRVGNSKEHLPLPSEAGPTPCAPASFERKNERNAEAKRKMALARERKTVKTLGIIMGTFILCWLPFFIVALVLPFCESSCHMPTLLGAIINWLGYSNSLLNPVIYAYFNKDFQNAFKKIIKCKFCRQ", "format": "functional, cell-based, CHO"}, "Procathepsin L": {"biological_target": "Procathepsin L (Homo sapiens, UniProt P07711)", "sequence (P07711 whole entry)": "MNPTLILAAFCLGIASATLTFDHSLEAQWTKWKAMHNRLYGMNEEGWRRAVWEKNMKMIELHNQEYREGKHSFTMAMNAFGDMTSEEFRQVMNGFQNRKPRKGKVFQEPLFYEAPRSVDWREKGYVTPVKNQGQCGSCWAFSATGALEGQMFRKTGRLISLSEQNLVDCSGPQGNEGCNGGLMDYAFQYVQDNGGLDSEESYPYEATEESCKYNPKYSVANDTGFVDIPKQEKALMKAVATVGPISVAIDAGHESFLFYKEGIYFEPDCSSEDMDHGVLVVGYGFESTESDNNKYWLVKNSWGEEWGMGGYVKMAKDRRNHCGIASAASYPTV"}, "[2]": {"biological_target": "D(2) dopamine receptor (Homo sapiens) (UniProt P14416)", "sequence (P14416 whole entry)": "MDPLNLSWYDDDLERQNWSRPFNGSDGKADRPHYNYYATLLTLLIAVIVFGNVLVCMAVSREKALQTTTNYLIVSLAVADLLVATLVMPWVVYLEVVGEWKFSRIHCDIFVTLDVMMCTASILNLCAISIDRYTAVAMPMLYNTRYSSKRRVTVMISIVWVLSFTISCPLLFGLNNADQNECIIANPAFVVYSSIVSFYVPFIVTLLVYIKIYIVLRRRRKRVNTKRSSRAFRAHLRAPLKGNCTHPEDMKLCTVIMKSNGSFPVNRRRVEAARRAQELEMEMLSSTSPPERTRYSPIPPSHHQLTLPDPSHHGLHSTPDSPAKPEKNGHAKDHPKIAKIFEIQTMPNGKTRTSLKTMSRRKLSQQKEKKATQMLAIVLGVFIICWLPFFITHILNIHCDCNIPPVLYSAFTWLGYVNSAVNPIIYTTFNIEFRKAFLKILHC"}, "Plasmodium berghei": {"test_system": "Plasmodium berghei", "assay": "microbe, parasite or virus in culture", "format": "functional, organism-based"}, "Prothrombin": {"biological_target": "Prothrombin (Homo sapiens, UniProt P00734)"}, "Staphylococcus hominis": {"test_system": "Staphylococcus hominis", "assay": "microbe, parasite or virus in culture", "format": "functional", "settings": "IP8203"}, "Bacterial 70S ribosome": {"biological_target": "Bacterial 70S ribosome", "format": "subcellular, Bacteria"}}}
{"smiles": "Fc1ccc2[nH]cc(CCCCN3CCN(c4ccc5c(c4)OCO5)CC3)c2c1", "values": [{"measurement": "IC50", "setting": "[1]", "result": 4, "unit": "nM"}]}
{"smiles": "NCc1cc(F)c(O)c(F)c1", "values": [{"measurement": "pKa", "setting": "physchem", "result": 7.12}]}
{"smiles": "N#Cc1ccc2[nH]cc(CCCCN3CCN(c4ccc5c(c4)OCCO5)CC3)c2c1", "values": [{"measurement": "IC50", "setting": "[1]", "result": 1, "unit": "nM"}]}
{"smiles": "N#Cc1nc(N2CCOCC2)nc(N(Cc2ccncc2)C2CCCC2)n1", "values": [{"measurement": "Ki", "setting": "Procathepsin L", "result": 158, "unit": "nM"}]}
{"smiles": "Fc1ccc2[nH]cc(CCCCN3CCN(c4ccc5c(c4)OCCO5)CC3)c2c1", "values": [{"measurement": "IC50", "setting": "[1]", "result": 5, "unit": "nM"}]}
{"smiles": "Clc1ccc2[nH]cc(CCCCN3CCN(c4ccc5c(c4)OCCO5)CC3)c2c1", "values": [{"measurement": "IC50", "setting": "[1]", "result": 40, "unit": "nM"}]}
{"smiles": "N#Cc1nc(N2CCOCC2)nc(N(Cc2ncccn2)C2CCCC2)n1", "values": [{"measurement": "Ki", "setting": "Procathepsin L", "result": 398, "unit": "nM"}]}
{"smiles": "N#Cc1nc(N2CCOCC2)nc(N(Cc2ccc(F)cc2F)C2CCCC2)n1", "values": [{"measurement": "Ki", "setting": "Procathepsin L", "result": 126, "unit": "nM"}]}
{"smiles": "NCc1ccc(F)c(O)c1F", "values": [{"measurement": "pKa", "setting": "physchem", "result": 9.81}]}
{"smiles": "Oc1nc2c(OCCNCc3ccccc3)cccc2[nH]1", "values": [{"measurement": "KiH", "setting": "[2]", "result": 0.18, "unit": "nM"}]}
{"smiles": "N#Cc1nc(N2CCOCC2)nc(N(Cc2cccc(F)c2)C2CCCC2)n1", "values": [{"measurement": "Ki", "setting": "Procathepsin L", "result": 200, "unit": "nM"}]}
{"smiles": "c1ccc(CNCCOc2cccc3[nH]cnc23)cc1", "values": [{"measurement": "KiH", "setting": "[2]", "result": 9.8, "unit": "nM"}]}
{"smiles": "NC(=O)c1cc2cc(N3CCN(CCCCc4c[nH]c5ccc(F)cc45)CC3)ccc2o1", "values": [{"measurement": "IC50", "setting": "[1]", "result": 3, "unit": "nM"}]}
{"smiles": "N#Cc1nc(N2CCOCC2)nc(N(Cc2cccnc2)C2CCCC2)n1", "values": [{"measurement": "Ki", "setting": "Procathepsin L", "result": 100, "unit": "nM"}]}
{"smiles": "N#Cc1nc(N2CCOCC2)nc(N(Cc2cnccn2)C2CCCC2)n1", "values": [{"measurement": "Ki", "setting": "Procathepsin L", "result": 158, "unit": "nM"}]}
{"smiles": "CC1=C(C(F)(F)F)O[C@@H]2O[C@@]3(C)CC[C@H]4[C@H](C)CC[C@@H]1[C@@]24OO3", "values": [{"measurement": "IC50", "setting": "Plasmodium berghei", "result": 4.6, "unit": "nM"}, {"measurement": "IC90", "setting": "Plasmodium berghei", "result": 7.3, "unit": "nM"}]}
{"smiles": "C[C@@H]1CC[C@H]2[C@@H](C)C(=C(F)F)O[C@@H]3O[C@@]4(C)CC[C@@H]1[C@]32OO4", "values": [{"measurement": "IC50", "setting": "Plasmodium berghei", "result": 20, "unit": "nM"}]}
{"smiles": "N#Cc1nc(N2CCOCC2)nc(N(Cc2ccc(F)cc2)C2CCCC2)n1", "values": [{"measurement": "Ki", "setting": "Procathepsin L", "result": 501, "unit": "nM"}]}
{"smiles": "N=C(N)c1ccc([C@H]2[C@H]3C(=O)N(Cc4cccc(F)c4)C(=O)[C@H]3[C@@H]3CCCN32)cc1", "values": [{"measurement": "Ki", "setting": "Prothrombin", "result": 360, "unit": "nM"}]}
{"smiles": "CC1=C\\[C@@H](O)C[C@H](F)Cc2nc(co2)C(=O)N2CCC[C@@H]2C(=O)O[C@H](C(C)C)[C@H](C)/C=C/C(=O)NC\\C=C\\1", "values": [{"measurement": "MIC", "setting": "Staphylococcus hominis", "result": 8, "unit": "µg/mL"}, {"measurement": "IC50", "setting": "Bacterial 70S ribosome", "result": 500, "unit": "nM"}]}
{"smiles": "c1ccc2c(CCCCN3CCN(c4ccc5c(c4)OCCO5)CC3)c[nH]c2c1", "values": [{"measurement": "IC50", "setting": "[1]", "result": 8, "unit": "nM"}]}
{"smiles": "N=C(N)c1ccc([C@H]2[C@H]3C(=O)N(Cc4ccccc4F)C(=O)[C@H]3[C@@H]3CCCN32)cc1", "values": [{"measurement": "Ki", "setting": "Prothrombin", "result": 500, "unit": "nM"}]}
{"smiles": "CC1=C\\[C@@H](O)C[C@@H](F)Cc2nc(co2)C(=O)N2CCC[C@@H]2C(=O)O[C@H](C(C)C)[C@H](C)/C=C/C(=O)NC\\C=C\\1", "values": [{"measurement": "MIC", "setting": "Staphylococcus hominis", "result": 0.25, "unit": "µg/mL"}, {"measurement": "IC50", "setting": "Bacterial 70S ribosome", "result": 60, "unit": "nM"}]}
{"smiles": "C[C@@H]1CC[C@H]2[C@@H](C)C(=O)O[C@@H]3O[C@@]4(C)CC[C@@H]1[C@]32OO4", "note": "[ARTEMISININ]", "values": [{"measurement": "IC50", "setting": "Plasmodium berghei", "result": 8.9, "unit": "nM"}, {"measurement": "IC90", "setting": "Plasmodium berghei", "result": 14.5, "unit": "nM"}]}
{"smiles": "N=C(N)c1ccc([C@H]2[C@H]3C(=O)N(Cc4ccc(F)cc4F)C(=O)[C@H]3[C@@H]3CCCN32)cc1", "values": [{"measurement": "Ki", "setting": "Prothrombin", "result": 260, "unit": "nM"}]}
{"smiles": "CC1=C\\[C@@H](O)CC(=O)Cc2nc(co2)C(=O)N2CCC[C@@H]2C(=O)O[C@H](C(C)C)[C@H](C)/C=C/C(=O)NC\\C=C\\1", "note": "[VOLPRISTIN]", "values": [{"measurement": "MIC", "setting": "Staphylococcus hominis", "result": 4, "unit": "µg/mL"}, {"measurement": "IC50", "setting": "Bacterial 70S ribosome", "result": 100, "unit": "nM"}]}
{"smiles": "Cc1nc2c(OCCNCc3ccccc3)cccc2[nH]1", "values": [{"measurement": "KiH", "setting": "[2]", "result": 4.4, "unit": "nM"}]}
{"smiles": "Oc1nc2c3c(ccc2[nH]1)CCC(CNCc1ccccc1)O3", "note": "(configuration not stated)", "values": [{"measurement": "KiH", "setting": "[2]", "result": 0.14, "unit": "nM"}]}
{"smiles": "N=C(N)c1ccc([C@H]2[C@H]3C(=O)N(Cc4ccc(Cl)cc4)C(=O)[C@H]3[C@@H]3CCCN32)cc1", "values": [{"measurement": "Ki", "setting": "Prothrombin", "result": 190, "unit": "nM"}]}
{"smiles": "N#Cc1nc(N2CCOCC2)nc(N(Cc2ccncn2)C2CCCC2)n1", "values": [{"measurement": "Ki", "setting": "Procathepsin L", "result": 251, "unit": "nM"}]}
{"smiles": "N#Cc1nc(N2CCOCC2)nc(N(Cc2c(F)cccc2F)C2CCCC2)n1", "values": [{"measurement": "Ki", "setting": "Procathepsin L", "result": 100, "unit": "nM"}]}
{"smiles": "N=C(N)c1ccc([C@H]2[C@H]3C(=O)N(Cc4cccc(F)c4F)C(=O)[C@H]3[C@@H]3CCCN32)cc1", "values": [{"measurement": "Ki", "setting": "Prothrombin", "result": 490, "unit": "nM"}]}
{"smiles": "FC(F)(F)c1nc2c(OCCNCc3ccccc3)cccc2[nH]1", "values": [{"measurement": "KiH", "setting": "[2]", "result": 0.18, "unit": "nM"}]}
{"smiles": "FC(F)(F)c1nc2c3c(ccc2[nH]1)CCC(CNCc1ccccc1)O3", "note": "(configuration not stated)", "values": [{"measurement": "KiH", "setting": "[2]", "result": 5.75, "unit": "nM"}]}
{"smiles": "O=C1Cc2c(ccc3c2OC(CNCc2ccccc2)CC3)N1", "note": "(configuration not stated)", "values": [{"measurement": "KiH", "setting": "[2]", "result": 0.37, "unit": "nM"}]}
{"smiles": "N#Cc1nc(N2CCOCC2)nc(N(Cc2cc(F)ccc2F)C2CCCC2)n1", "values": [{"measurement": "Ki", "setting": "Procathepsin L", "result": 251, "unit": "nM"}]}
{"smiles": "N#Cc1ccc2[nH]cc(CCCCN3CCN(c4ccc5c(c4)OCO5)CC3)c2c1", "values": [{"measurement": "IC50", "setting": "[1]", "result": 0.7, "unit": "nM"}]}
